According to patent US10450549B2, “Aryloxyphenoxypropionate tolerance in turfrgass species and use of AAD1 as a selectable marker” (Dow AgroSciences, LLC, priority 2004, dated 2019):

Legend:
[1] = tested on: T4 Arabidopsis homozygous for AAD1 (v3) (line AAD1.01.315.076); assay: Foliar-applied auxinic herbicides on homozygous T4 AAD1 (v3) Arabidopsis, % injury 14 DAT; format: in vivo, Arabidopsis thaliana; conditions: foliar, 50-3200 g ae/ha
Experimental: The ability of AAD1 (v3) to provide resistance to other aryloxyphenoxyalkanoate auxin herbicides in transgenic Arabidopsis was determined by foliar application of various substrates described in Example 6.8. T4 generation Arabidopsis seed, homozygous for AAD1 (v3) (line AAD1.01.315.076) was stratified, and sown into selection trays much like that of Arabidopsis (Example 6.4). A transformed-control line containing PAT and the insect resistance gene Cry1F was planted in a similar manner. Seedlings were transferred to individual 3-inch pots in the greenhouse. All plants were sprayed with the use of a track sprayer set at 187 L/ha. […] All applications were formulated in 200 mM Hepes buffer (pH 7.5). Each treatment was replicated 3-4 times. Plants were evaluated at 3 and 14 days after treatment and are averaged over two experiments.

[2] = tested on: Arabidopsis thaliana var. Columbia; assay: Arabidopsis plate test bioassay for herbicide degradation; format: in vivo; conditions: Arabidopsis thaliana, 168 h, read-out: GR50, Chemical alone
[3] = target: T1, AAD1 (v1) (Sphingobium herbicidovorans, UniProt Q8KSC8); assay: Colorimetric phenol detection assay of AAD1 (v1) activity (purified enzyme or E. coli extract); format: biochemical
T1 construct: made in house; host or cells: E. coli BL-21 Star (DE3), plasmid pDAB3203

[4] = tested on: wt ARBTH; assay: In vitro plate test of herbicide cross resistance: wild-type Arabidopsis; format: in vivo, Arabidopsis thaliana; conditions: 7 days
Experimental: (§1) The ability of AAD1 (v3) to provide resistance to other aryloxyphenoxyalkanoate herbicides in transgenic Arabidopsis was determined using a modified in vitro plate assay. Seeds from wild-type Arabidopsis thaliana as well as Arabidopsis thaliana containing the plant optimized AAD1 (v3) gene (T4 homozygous plants id=PAAD1.315.064) were sterilized by agitating for 10 min in a 50% bleach solution. These seeds were then rinsed four times with sterile water to remove the bleach.
(§2) Dose response assays utilized a nutrient media (see below) supplemented with various rates of test compounds. The test compounds were added to the heated media (55° C.) as concentrated solutions in DMSO. Control wells had the appropriate amount of DMSO without any additional compound. The final concentration of DMSO never exceeded 1% (v/v). After thorough mixing, a 6 mL aliquot of the warm media containing the appropriate concentration of compound was added to each well of a 6-well, flat bottom, polystyrene tissue culture tray (Falcon 353046, Becton Dickson and Company, Franklin Lakes, N.J.). After the media solidified, approximately 20 to 30 Arabidopsis seeds were applied on top of the solidified media and the remaining 2 mL of media was poured over the seeds. The plates were lightly agitated to disperse the seeds, covered and allowed to cool until the media had completely solidified. The plates were incubated for 7 days at 25° C. under continual fluorescent lighting (75 μE m^−2 s^−1). Nutrient Media Composition was as described in Example 2.2 and in Somerville and Orgen (1982).
(§3) Assessment of Growth Reduction. The apical portion of the Arabidopsis plants grown in the treated media was assessed visually relative to the apical portion of the plants grown in the media containing only DMSO. Values were recorded as % growth reduction. Assessments of root growth inhibition of the Arabidopsis plants grown in the treated media were achieved by carefully extracting the plants from the media and measuring the length of the root. These root lengths were then compared to the root length of the control plants to determine a % growth reduction. A minimum of five plants were assessed for each treatment. The values recorded are an average of all the plants assessed. The calculated concentration to reach 50% inhibition effect (I50) were determined for both root and shoots of wildtype and AAD1-transformed Arabidopsis. The ratios of resistant to sensitive biotypes are included in Table 19. A ratio>2 for both root and shoot measurements generally signifies significant resistance. The higher the ratio, the greater the level of resistance. […] The broad phenoxy auxin resistance is the first reported in planta.

[5] = tested on: PAAD1.315.064 ARBTH; assay: In vitro plate test of herbicide cross resistance: homozygous T4 AAD1 (v3) Arabidopsis; format: in vivo, Arabidopsis thaliana; conditions: for root ratio / shoot ratio: resistant to sensitive biotype, >2 signifies resistance; for PAAD1.315.064 ARBTH root 150 / PAAD1.315.064 T3 ARBTH shoot 150: 7 days
Experimental: as §1, §2, §3

[6] = tested on: AAD1 (v3) event lines; assay: Field tolerance of pDAB3404 T1 corn to quizalofop and 2,4-D: AAD1 (v3) events; format: in vivo; conditions: 1120 g ae/ha
Text: (§4) Two field trials were established at field stations in Hawaii and Indiana. […] The hybrid Hi-II×5XH571 is of the same parentage as the AAD1 (v3) event lines. The hybrid Croplan 585SR is a sethoxydim resistant line.
(§5) The experimental design was a split-plot with four replications. The main plot was herbicide treatment and the sub-plot was AAD1 (v3) event or comparison hybrid. Plots were one row by 3.7 meters with approximately twenty-five seeds planted in each row. For AAD1 events, seeds from a different lineage within the event were planted in each replicate.
(§6) Glufosinate at 560 g ai/ha was applied to AAD1 (v3) plots at the V2 stage to eliminate non-transformed plants. […] Treatments were applied using backpack broadcast boom equipment delivering 187 L/ha carrier volume at 130-200 kpa pressure.
(§7) Quizalofop treated plots were visually assessed for crop injury at one and three weeks after application (WAA) using a 0-100% scale, where 0 equals no injury and 100 equals complete death.

[7] = tested on: Non-transformed hybrids; assay: Field tolerance to quizalofop and 2,4-D: non-transformed hybrids; format: in vivo, corn; conditions: 1120 g ae/ha
Text: as §4, §5, §6, §7

T1 sequence (Q8KSC8 whole entry): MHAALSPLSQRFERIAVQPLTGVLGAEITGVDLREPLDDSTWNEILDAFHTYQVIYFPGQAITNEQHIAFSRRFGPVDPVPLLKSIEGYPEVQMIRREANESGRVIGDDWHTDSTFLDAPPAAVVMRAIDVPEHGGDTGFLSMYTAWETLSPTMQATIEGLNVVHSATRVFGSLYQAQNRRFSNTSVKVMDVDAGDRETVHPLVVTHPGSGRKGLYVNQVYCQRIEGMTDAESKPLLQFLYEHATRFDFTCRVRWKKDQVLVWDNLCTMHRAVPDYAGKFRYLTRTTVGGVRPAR

## Oc1ccc(Cl)cc1Cl [DCP, 2,4-dichlorophenol]
[1]
  effect of the metabolite on wildtype or transgenic Arabidopsis: no effect
[2]
  IC50: > 1000 nM

## Cc1cc(Cl)ccc1OCC(=O)O [MCPA]
[3]; 1 mM, 27 μg crude recombinant AAD1 (v1) per assay
  rate of product formation relative to 2,4-D: 55%
[3]; Table 8, 1 mM, 27 μg crude recombinant AAD1 (v1) extract from E. coli
  A510: 0.097
[3]; Table 8, relative to 2,4-D, crude AAD1 (v1) extract
  % 2,4-D: 55%
[4]
  wt ARBTH root 150: 0.01 ppm
  wt ARBTH shoot 150: 0.2 ppm
[5]
  root ratio: 3
  shoot ratio: 5
  PAAD1.315.064 ARBTH root 150: 0.03 ppm
  PAAD1.315.064 T3 ARBTH shoot 150: 1 ppm

## Nc1c(Cl)c(Cl)nc(C(=O)O)c1Cl [Picloram]
[4]
  wt ARBTH root 150: 0.3 ppm
  wt ARBTH shoot 150: 1 ppm
[5]
  root ratio: 0.5
  shoot ratio: 0.5
  PAAD1.315.064 ARBTH root 150: 0.15 ppm
  PAAD1.315.064 T3 ARBTH shoot 150: 0.5 ppm
[5]; root and shoot assessment
  resistance afforded by AAD1 (v3) in plate test: did not effectively protect

## CNC.O=C(O)COc1ccc(Cl)cc1Cl [2,4-D amine]
[6]; HI, 3404.001
  %Leaning 2 DAA (0-100 scale): 5%
  Braceroot Deformation 3-4 WAA (0-10 scale): 2
[6]; HI, 3404.006
  %Leaning 2 DAA (0-100 scale): 0%
  Braceroot Deformation 3-4 WAA (0-10 scale): 0
[6]; HI, 3404.013
  %Leaning 2 DAA (0-100 scale): 0%
  Braceroot Deformation 3-4 WAA (0-10 scale): 0
[6]; HI, 3404.017
  %Leaning 2 DAA (0-100 scale): 0%
  Braceroot Deformation 3-4 WAA (0-10 scale): 0
[6]; HI, 3404.020
  %Leaning 2 DAA (0-100 scale): 0%
  Braceroot Deformation 3-4 WAA (0-10 scale): 0
[6]; HI, 3404.022
  %Leaning 2 DAA (0-100 scale): 0%
  Braceroot Deformation 3-4 WAA (0-10 scale): 0
[6]; HI, 3404.025
  %Leaning 2 DAA (0-100 scale): 0%
  Braceroot Deformation 3-4 WAA (0-10 scale): 0
[6]; HI, 3404.027
  %Leaning 2 DAA (0-100 scale): 0%
  Braceroot Deformation 3-4 WAA (0-10 scale): 0
[6]; HI, 3404.031
  %Leaning 2 DAA (0-100 scale): 0%
  Braceroot Deformation 3-4 WAA (0-10 scale): 0
[6]; HI, 3404.033
  %Leaning 2 DAA (0-100 scale): 0%
  Braceroot Deformation 3-4 WAA (0-10 scale): 0
[6]; HI, 3404.036
  %Leaning 2 DAA (0-100 scale): 0%
  Braceroot Deformation 3-4 WAA (0-10 scale): 0
[6]; HI, 3404.044
  %Leaning 2 DAA (0-100 scale): 0%
  Braceroot Deformation 3-4 WAA (0-10 scale): 1
[6]; HI, 3404.050
  %Leaning 2 DAA (0-100 scale): 1%
  Braceroot Deformation 3-4 WAA (0-10 scale): 1
[6]; HI, 3404.053
  %Leaning 2 DAA (0-100 scale): 0%
  Braceroot Deformation 3-4 WAA (0-10 scale): 0
[6]; HI, 3404.074
  %Leaning 2 DAA (0-100 scale): 0%
  Braceroot Deformation 3-4 WAA (0-10 scale): 0
[6]; HI, 3404.082
  %Leaning 2 DAA (0-100 scale): 0%
  Braceroot Deformation 3-4 WAA (0-10 scale): 1
[6]; IN, 3404.001
  %Leaning 2 DAA (0-100 scale): 0%
  Braceroot Deformation 3-4 WAA (0-10 scale): 1
[6]; IN, 3404.006
  %Leaning 2 DAA (0-100 scale): 0%
  Braceroot Deformation 3-4 WAA (0-10 scale): 0
[6]; IN, 3404.013
  %Leaning 2 DAA (0-100 scale): 0%
  Braceroot Deformation 3-4 WAA (0-10 scale): 0
[6]; IN, 3404.017
  %Leaning 2 DAA (0-100 scale): 1%
  Braceroot Deformation 3-4 WAA (0-10 scale): 0
[6]; IN, 3404.020
  %Leaning 2 DAA (0-100 scale): 0%
  Braceroot Deformation 3-4 WAA (0-10 scale): 0
[6]; IN, 3404.022
  %Leaning 2 DAA (0-100 scale): 1%
  Braceroot Deformation 3-4 WAA (0-10 scale): 0
[6]; IN, 3404.025
  %Leaning 2 DAA (0-100 scale): 0%
  Braceroot Deformation 3-4 WAA (0-10 scale): 0
[6]; IN, 3404.027
  %Leaning 2 DAA (0-100 scale): 3%
  Braceroot Deformation 3-4 WAA (0-10 scale): 0
[6]; IN, 3404.031
  %Leaning 2 DAA (0-100 scale): 1%
  Braceroot Deformation 3-4 WAA (0-10 scale): 0
[6]; IN, 3404.033
  %Leaning 2 DAA (0-100 scale): 0%
  Braceroot Deformation 3-4 WAA (0-10 scale): 0
[6]; IN, 3404.036
  %Leaning 2 DAA (0-100 scale): 0%
  Braceroot Deformation 3-4 WAA (0-10 scale): 0
[6]; IN, 3404.044
  %Leaning 2 DAA (0-100 scale): 1%
  Braceroot Deformation 3-4 WAA (0-10 scale): 0
[6]; IN, 3404.050
  %Leaning 2 DAA (0-100 scale): 0%
  Braceroot Deformation 3-4 WAA (0-10 scale): 0
[6]; IN, 3404.053
  %Leaning 2 DAA (0-100 scale): 1%
  Braceroot Deformation 3-4 WAA (0-10 scale): 0
[6]; IN, 3404.074
  %Leaning 2 DAA (0-100 scale): 0%
  Braceroot Deformation 3-4 WAA (0-10 scale): 0
[6]; IN, 3404.082
  %Leaning 2 DAA (0-100 scale): 0%
  Braceroot Deformation 3-4 WAA (0-10 scale): 0
[7]; HI, CROPLAN 585SR
  %Leaning 2 DAA (0-100 scale): 33%
  Braceroot Deformation 3-4 WAA (0-10 scale): 9
[7]; HI, DK493
  %Leaning 2 DAA (0-100 scale): 23%
  Braceroot Deformation 3-4 WAA (0-10 scale): 9
[7]; HI, HI-II X 5XH571
  %Leaning 2 DAA (0-100 scale): 34%
  Braceroot Deformation 3-4 WAA (0-10 scale): 9
[7]; IN, CROPLAN 585SR
  %Leaning 2 DAA (0-100 scale): 11%
  Braceroot Deformation 3-4 WAA (0-10 scale): 9
[7]; IN, DK493
  %Leaning 2 DAA (0-100 scale): 20%
  Braceroot Deformation 3-4 WAA (0-10 scale): 8
[7]; IN, HI-II X 5XH571
  %Leaning 2 DAA (0-100 scale): 13%
  Braceroot Deformation 3-4 WAA (0-10 scale): 7
